Test results published in patent US11512053B2, “Arginine methyltransferase inhibitors and uses thereof” (priority 2013, dated 2022).
Where a name gives a salt, the structure may show the parent alone. Read-outs that look alike come from different tables or passages of the source.

Assays:
[1] = tested on: mono-methyl arginine in RKO cells; assay: RKO Methylation Assay, In Cell Western (ICW) for detection of mono-methyl arginine and DNA content; type: cell-based; conditions: Homo sapiens, RKO, 72 h
Outline: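 RKO cells were treated with compound for 72 hours at 37 °C, methanol-fixed and stained overnight at 4 °C with anti-mono-methyl arginine (1:200), with DRAQ5 for DNA. Odyssey 800/700 nm intensity ratio was normalized to DMSO and 20 μM reference-compound controls. EC30 from triplicate nine-point curves.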

[2] = molecular target: full-length human PRMT6 (Flag- and His-tagged) (Homo sapiens, UniProt Q96LA8); assay: PRMT6 Biochemical Assay (3H-SAM Flashplate, peptide substrate); conditions: read-out: Biochemical IC50 PRMT6
Sequence of full-length human PRMT6 (Flag- and His-tagged) (Q96LA8 with tags, fused parts or gaps): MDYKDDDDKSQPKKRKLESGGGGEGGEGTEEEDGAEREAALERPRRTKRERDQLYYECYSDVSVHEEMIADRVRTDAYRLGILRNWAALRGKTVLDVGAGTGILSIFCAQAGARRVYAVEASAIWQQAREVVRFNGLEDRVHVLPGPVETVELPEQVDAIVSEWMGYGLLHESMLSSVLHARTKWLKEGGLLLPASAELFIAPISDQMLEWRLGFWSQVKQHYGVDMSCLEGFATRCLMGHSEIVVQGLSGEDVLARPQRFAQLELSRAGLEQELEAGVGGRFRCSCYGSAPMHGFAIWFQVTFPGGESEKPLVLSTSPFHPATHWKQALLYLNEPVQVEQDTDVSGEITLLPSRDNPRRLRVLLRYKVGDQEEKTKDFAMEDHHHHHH
Outline: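 Flag/His-tagged full-length human PRMT6 (1 nM) preincubated with compound 30 min at room temperature in Bicine pH 7.6 buffer, then reaction started with 3H-SAM 200 nM plus unlabeled SAM 250 nM and biotinylated H4 36-50 peptide (K44me1) 75 nM; 2% DMSO. Quenched with 400 uM cold SAM; labeled peptide captured on streptavidin Flashplate, counted; % inhibition vs DMSO and 1 mM SAH controls fit by 3- or 4-parameter curve.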

[3] = RKO cells, 72 hours compound incubation, mono-methyl arginine signal normalised to DNA content (DRAQ5), percent activation vs 20 μM reference compound, read-out: In Cell Western EC30
[4] = RKO cells, 72 hours incubation, mono-methyl arginine signal normalised to DNA content, single experiment or average of multiple experiments, read-out: In Cell Western EC30
[5] = single experiment or average of multiple experiments
[6] = read-out: In Cell Western EC30, RKO cells, 72 hours compound incubation, mono-methyl arginine signal normalised to DNA content (DRAQ5), percent activation vs 20 μM reference compound
[7] = read-out: In Cell Western EC30, RKO cells, 72 hours incubation, mono-methyl arginine signal normalised to DNA content, single experiment or average of multiple experiments

| Compound | IC50 [2] [nM] | IC50 [2, 5] [nM] | EC30 [1, 3] [nM] | EC30 [1, 4] [nM] | EC30 [1, 6] [nM] | EC30 [1, 7] [nM] |
| --- | --- | --- | --- | --- | --- | --- |
| CNCCN(C)Cc1c[nH]nc1[C@H]1CC[C@H](N(CC(C)C)C(=O)CCOC)CC1 [Compound 234] | < 100 | 84.1 | < 3000 | 1060 |  |  |
| CNCCN(C)Cc1c[nH]nc1[C@H]1CC[C@H](N(CC(C)C)C(=O)CCCOC)CC1 [Compound 248] | < 100 | 32.6 | < 3000 | 1310 |  |  |
| CNCCN(C)Cc1c[nH]nc1[C@H]1CC[C@H](N(CCC(C)C)C(=O)CCCOC)CC1 [Compound 238] | < 100 | 53.9 | < 3000 | 2150 |  |  |
| CNCCN(C)Cc1c[nH]nc1[C@H]1CC[C@H](N(CCOC)C(=O)CC(C)C)CC1 [Compound 252] | < 100 | 48.3 | < 3000 | 267 |  |  |
| CNCCN(C)Cc1c[nH]nc1[C@H]1CC[C@@H](C(=O)NCCOc2ccccc2)CC1 [Compound 212] | < 100 | 13.6 | < 3000 | 433 |  |  |
| CNCCN(C)Cc1c[nH]nc1[C@H]1CC[C@@H](C(=O)NCCC(C)C)CC1 [Compound 204] | < 100 | 63.6 | < 3000 | 1550 |  |  |
| CNCCN(C)Cc1c[nH]nc1[C@H]1CC[C@H](C(=O)N(CCCOC)CCC(C)C)CC1 [Compound 213] | < 100 | 91.3 | < 3000 | 433 |  |  |
| CCN(C(=O)CCOc1ccccc1)[C@H]1CC[C@H](c2n[nH]cc2CN(C)CCNC)CC1 [Compound 225] | < 100 | 11.6 | < 3000 | 649 |  |  |
| CCN(C(=O)CCC(C)C)[C@H]1CC[C@@H](c2n[nH]cc2CN(C)CCNC)CC1 [Compound 251] | < 100 | 17.1 | < 3000 | 1450 |  |  |
| CNCCN(C)Cc1c[nH]nc1[C@H]1CC[C@@H](N(CCOc2ccccc2)C(=O)CC(C)C)CC1 [Compound 222] | < 100 | 21.3 | < 3000 | 2610 |  |  |
| CNCCN(C)Cc1c[nH]nc1[C@H]1CC[C@H](N(CC(C)C)C(=O)CCOc2ccccc2)CC1 [Compound 232] | < 100 | 19.4 | < 3000 | 957 |  |  |
| CNCCN(C)Cc1c[nH]nc1[C@H]1CC[C@@H](N(CC(C)C)C(=O)CCOC)CC1 [Compound 233] | < 100 | 47.9 | < 3000 | 1060 |  |  |
| CNCCN(C)Cc1c[nH]nc1[C@H]1CC[C@@H](O)CC1 [Compound 217, 4-[4-([methyl[2-(methylamino)ethyl]amino]methyl)-1H-pyrazol-3-yl]cyclohexan-1-ol trifluoroacetate] | < 100 | 34 |  |  | < 3000 | 111 |
| CNCCN(C)Cc1c[nH]nc1[C@H]1CC[C@H](O)CC1 [Compound 227, 4-[4-([methyl[2-(methylamino)ethyl]amino]methyl)-1H-pyrazol-3-yl]cyclohexan-1-ol trifluoroacetate] | < 100 | 17.8 |  |  | < 3000 | 1530 |
| CNCCN(C)Cc1c[nH]nc1[C@H]1CC[C@@H](N(CC(C)C)C(=O)CCOc2ccccc2)CC1 [Compound 231] | < 100 | 14.7 | < 3000 | 96.7 |  |  |
| CNCCN(C)Cc1c[nH]nc1[C@H]1CC[C@H](N(CCOc2ccccc2)C(=O)CC(C)C)CC1 [Compound 223] | < 100 | 15.8 | < 3000 | 275 |  |  |
| CNCCN(C)Cc1c[nH]nc1[C@H]1CC[C@H](C(=O)NCCOc2ccccc2)CC1 [Compound 211] | < 100 | 11.4 | < 3000 | 155 |  |  |
| CCN(C(=O)CCOc1ccccc1)[C@H]1CC[C@@H](c2n[nH]cc2CN(C)CCNC)CC1 [Compound 224] | < 100 | 18 | < 3000 | 84.7 |  |  |
| CNCCN(C)Cc1c[nH]nc1[C@H]1CC[C@@H](N(CCC(C)C)C(=O)CCCOC)CC1 [Compound 237] | < 100 | 41 | < 3000 | 1440 |  |  |
| CNCCN(C)Cc1c[nH]nc1[C@H]1CC[C@H](N(CCOC)C(=O)CCC(C)C)CC1 [Compound 254] | < 100 | 17.6 | < 3000 | 1340 |  |  |
| CNCCN(C)Cc1c[nH]nc1[C@H]1CC[C@H](N(CCCOC)C(=O)CCOc2ccccc2)CC1 [Compound 247] | < 100 | 20.2 | < 3000 | 698 |  |  |
| CNCCN(C)Cc1c[nH]nc1[C@H]1CC[C@H](N(CC(C)C)C(=O)CC2CCOCC2)CC1 [Compound 193] | < 100 | 95.1 | < 3000 | 1440 |  |  |
| CCN(C(=O)CC1CCOCC1)[C@H]1CC[C@H](c2n[nH]cc2CN(C)CCNC)CC1 [Compound 195] | < 100 | 51.7 | 3010 to 12000 | 4890 |  |  |

Further lines, with some results ahead:

| IC50 [2] [nM] | IC50 [2, 5] [nM] | Compound | EC30 [1, 3] [nM] | EC30 [1, 4] [nM] | EC30 [1, 6] [nM] | EC30 [1, 7] [nM] |
| --- | --- | --- | --- | --- | --- | --- |
| < 100 | 71.5 | CNCCN(C)Cc1cn(C)nc1[C@H]1CC[C@@]2(CC1)CC(C)(C)CO2 [Compound 205, Methyl([1-methyl-3-[(5S,8S)-3,3-dimethyl-1-oxaspiro[4.5]decan-8-yl]-1H-pyrazol-4-yl]methyl)[2-(methylamino)ethyl]amine hydrochloride] | < 3000 | 14.4 |  |  |
| < 100 | 7.75 | CCN(C(=O)CC(C)C)[C@H]1CC[C@H](c2n[nH]cc2CN(C)CCNC)CC1 [Compound 239] | < 3000 | 2150 |  |  |
| < 100 | 22.7 | CNCCN(C)Cc1c[nH]nc1C1CCC(=O)CC1 [Compound 194] | < 3000 | 1180 |  |  |
| < 100 | 6.72 | CCN(C(=O)CC(C)C)[C@H]1CC[C@@H](c2n[nH]cc2CN(C)CCNC)CC1 [Compound 240] | < 3000 | 1180 |  |  |
| 101 to 1000 | 153 | CNCCN(C)Cc1cnn(C)c1[C@H]1CC[C@]2(CC1)CC(C)(C)CO2 [Compound 257] | < 3000 | 13.2 |  |  |
| 101 to 1000 | 207 | CNCCN(C)Cc1cn(C)nc1[C@H]1CC[C@]2(CC1)CC(C)(C)CO2 [Compound 206, Methyl([1-methyl-3-[(5R,8S)-3,3-dimethyl-1-oxaspiro[4.5]decan-8-yl]-1H-pyrazol-4-yl]methyl)[2-(methylamino)ethyl]amine hydrochloride] | < 3000 | 76.5 |  |  |
| < 100 | 27.6 | CNCCN(C)Cc1c[nH]nc1C1CCC(C)(C)[C@@H](C(=O)OC)C1 (stereo partly drawn) [Compound 255] | < 3000 | 214 |  |  |
| < 100 | 81.2 | CNCCN(C)Cc1c[nH]nc1C1CCC(C)(C)[C@H](C(=O)NCC(C)C)C1 (stereo partly drawn) [Compound 262] | < 3000 | 289 |  |  |
| < 100 | 38.5 | CNCCN(C)Cc1c[nH]nc1C1CCC(C)(C)[C@H](C(=O)OC)C1 (stereo partly drawn) [Compound 256] | < 3000 | 316 |  |  |
| 3010 to 10000 | 8540 | CNCCN(C)Cc1c[nH]nc1[C@H]1CC[C@]2(CCCO2)OC1 [Compound 198] | < 3000 | 406 |  |  |
| 101 to 1000 |  | CNCCN(C)Cc1n[nH]cc1[C@H]1CC[C@]2(CC1)CC(C)(C)CO2 [Compound 201] | < 3000 | 155 |  |  |
| < 100 |  | CNCCN(C)Cc1n[nH]cc1[C@H]1CC[C@@]2(CC1)CC(C)(C)CO2 [Compound 200, Methyl[2-(methylamino)ethyl]([4-[(5S,8S)-3,3-dimethyl-1-oxaspiro[4.5]decan-8-yl]-1H-pyrazol-3-yl]methyl)amine trifluoroacetic acid salt] | < 3000 | 20.3 |  |  |
